From PMC8044178, “Structural basis of norepinephrine recognition and transport inhibition in neurotransmitter transporters” (Nature Communications, 2021)
Where “and” joins values, the source holds several entries; their conditions need not be identical. Equal values may be shown once. Read-outs that look alike come from different tables or passages of the source.

Legend:
hDAT [1] = conditions: read-out: KM of transport by hDAT; cited from earlier work
hNET [2] = conditions: read-out: KM of transport by hNET; cited from earlier work
[3] = biological target: T1, dDATfc (Drosophila melanogaster dopamine transporter functional construct) (Drosophila melanogaster, UniProt Q7K4Y6, DEL164-191/F471L/L415A/V74A); test: cell-based; conditions: for inhibition at 10 µM: Log[compound] M = -5
T1 construct: expressed in transfected cells; host or cells: HEK293S GnTI- cells, transient transfection with pEG-BacMam plasmid
Protocol: (§1) Additional mutations in the subsite B or subsite C were incorporated into this gene used for carrying out the uptake assays.
(§2) Cells were transiently transfected with pEG-BacMam plasmid harboring the dDAT cGFP gene and incubated for 35–40 hrs at 37 °C with 5% CO2 and 80% humidity. […] The transport activity was arrested with 0.5 ml of pre-chilled assay buffer containing 100 μM desipramine (Sigma Aldrich) added to each reaction. The cells were then washed twice with the same buffer before solubilizing them in 0.1 ml of 20 mM DDM for one hour at room temperature. […] Following this, 0.1 ml of the supernatant was added to 0.5 ml of scintillation fluid (Ultima Gold, Perkin Elmer) and the radioactivity was estimated on MicroBeta scintillation counter (Perkin Elmer). […] The background-subtracted, dose–response plots were analyzed using GraphPad Prism v.5.0.1 and Ki values were determined from Cheng–Prusoff’s equation using the IC50 values obtained from the experiments.

dDATfc A117S/A428S = biological target: T2, dDATfc A117S/A428S (Drosophila melanogaster, UniProt Q7K4Y6, A117S/A428S/DEL164-191/F471L/L415A/V74A); test: cell-based; assay type: cell-based
T2 construct: expressed in transfected cells; host or cells: HEK293S GnTI- cells, transient transfection with pEG-BacMam plasmid
Protocol: (§3) Earlier studies have posited that non-conserved residues in the primary binding site are responsible for selective inhibition of biogenic amine uptake[57],[58]. […] Effects of these mutations were analyzed through uptake inhibition using the three SNRIs employed in this study (Fig. 6a–c). […] Supplementary Table 2)[56],[59].
as §1, §2

dDATfc A428S = biological target: T3, dDATfc A428S (Drosophila melanogaster, UniProt Q7K4Y6, A428S/DEL164-191/F471L/L415A/V74A); test: cell-based
T3 construct: expressed in transfected cells; host or cells: HEK293S GnTI- cells, transient transfection with pEG-BacMam plasmid
Protocol: as §3, §1, §2

dDATfc A117S = biological target: T4, dDATfc A117S (Drosophila melanogaster, UniProt Q7K4Y6, A117S/DEL164-191/F471L/L415A/V74A); test: cell-based
T4 construct: expressed in transfected cells; host or cells: HEK293S GnTI- cells, transient transfection with pEG-BacMam plasmid
Protocol: as §3, §1, §2

hDAT [4] = biological target: hDAT; design: method as in earlier work; conditions: vs. RTI-55; ref 4 (Supplementary: Vaishnavi et al., 2004); read-out: Binding Inhibition (Ki), hDAT; cited from earlier work
dDATmfc = biological target: T5, dDATmfc (Drosophila melanogaster, UniProt Q7K4Y6, DEL162-202/F471L/L415A/V74A); test: biochemical; conditions: read-out: Percent binding
T5 construct: GFP-8x-His (C); made in house; host or cells: HEK293S GnTI- cells, BacMam baculovirus transduction
Protocol: (§4) Binding assays were performed with 20 nM of purified dDAT protein by scintillation proximity assay. For determining nisoxetine Kd, [^3H] Nisoxetine (Perkin Elmer) (in 1:5 molar ratio) was used in the range of 0.1 nM to 500 nM with 100 µM desipramine added to the control samples. Competition assays were done with 50 nM [^3H] […] The assays were done in 1 mM DDM, 0.2 mM CHS, 20 mM Tris-Cl (pH 8), 300 mM NaCl and 5% glycerol. The background values were subtracted to plot the final curves in GraphPad prism v5.0.1 and the Kd values were calculated. The IC50 values obtained from binding competition assays were used to deduce the Ki values by Cheng–Prusoff’s equation.

hDAT [5] = conditions: read-out: Uptake Inhibition Ki, hDAT; ref 3 (Supplementary: Bymaster et al., 2003); cited from earlier work
hNET [6] = conditions: cited from earlier work
dDATNET = biological target: T6, dDATNET (Drosophila melanogaster, UniProt Q7K4Y6, D121G/DEL162-202/F471L/L415A/S426M/V74A); test: biochemical; assay type: binding
T6 construct: GFP-8x-His (C); made in house; host or cells: HEK293S GnTI- cells, BacMam baculovirus transduction
Protocol: as §4

[7] = HEK293S, 0.5 h, read-out: Percent inhibition of DA uptake, dDATfc, single replicates
[8] = 0.5 h, read-out: Percent inhibition of DA uptake
[9] = HEK293S, 0.5 h, read-out: Percent inhibition of DA uptake

NCCc1ccc(O)c(O)c1 [DA, dopamine]
Km (hDAT [1]): 2.54 µM | Km (hNET [2]): 0.67 µM | inhibition at 30 µM ([3]; HEK293S, 0.5 h, read-out: Percent inhibition of DA uptake, dDATfc, Log[compound] M = -4.52288, single replicates): 8.62% | inhibition at 10 µM [3, 7]: 20% | inhibition at 3 µM ([3]; HEK293S, 0.5 h, read-out: Percent inhibition of DA uptake, dDATfc, Log[compound] M = -5.52288, single replicates): 56.5% | inhibition at 0.1 µM ([3]; HEK293S, 0.5 h, read-out: Percent inhibition of DA uptake, dDATfc, Log[compound] M = -7, single replicates): 91.1% | inhibition at 0.03 µM ([3]; HEK293S, 0.5 h, read-out: Percent inhibition of DA uptake, dDATfc, Log[compound] M = -7.52288, single replicates): 92.7%

NCC(O)c1ccc(O)c(O)c1 [NE, L-norepinephrine]
Km (hDAT [1]): 20 µM | Km (hNET [2]): 2.6 µM | inhibition at 3000 µM ([3]; HEK293S, 0.5 h, read-out: Percent inhibition of DA uptake, dDATfc, Log[compound] M = -2.52288, single replicates): 2.69% | inhibition at 100 µM ([3]; HEK293S, 0.5 h, read-out: Percent inhibition of DA uptake, dDATfc, Log[compound] M = -4, single replicates): 29.3% | inhibition at 10 µM [3, 7]: 64.5% | inhibition at 1 µM ([3]; HEK293S, 0.5 h, read-out: Percent inhibition of DA uptake, dDATfc, Log[compound] M = -6, single replicates): 92.2% | Ki ([3]; Ki, inhibition of [3H] dopamine uptake): 19.1 µM and 19 µM

CNCC[C@H](Oc1cccc2ccccc12)c1cccs1 [S-duloxetine]
inhibition at 1 µM (dDATfc A117S/A428S; 0.5 h, read-out: Percent inhibition of DA uptake, A117S_A428S, Log[compound] M = -6, single replicates): 11.2% | inhibition at 0.3 µM (dDATfc A117S/A428S; 0.5 h, read-out: Percent inhibition of DA uptake, A117S_A428S, Log[compound] M = -6.52288, single replicates): 44% | inhibition at 0.1 µM (dDATfc A117S/A428S; 0.5 h, read-out: Percent inhibition of DA uptake, A117S_A428S, Log[compound] M = -7, single replicates): 76.7% | inhibition at 0.001 µM (dDATfc A117S/A428S; 0.5 h, read-out: Percent inhibition of DA uptake, A117S_A428S, Log[compound] M = -9, single replicates): 97.8% | increase in IC50 values, combination of A428S and A117S (dDATfc A117S/A428S; double mutant vs dDATfc): ~ 3 fold | inhibition at 0.03 µM (dDATfc A428S; [8]): 94.4% | inhibition at 0.1 µM (dDATfc A428S; [8]): 80.2% | inhibition at 0.3 µM (dDATfc A428S; [8]): 45.5% | inhibition at 1 µM (dDATfc A428S; [8]): 9.62% | inhibition at 0.03 µM (dDATfc A117S; [8]): 96.1% | Ki (hDAT [4]): 0.23 ± 0.017 µM | inhibition at 0.001 µM [3, 9]: 96.4% | inhibition at 0.003 µM [3, 9]: 88.9% | inhibition at 0.01 µM [3, 9]: 85.9% | inhibition at 0.03 µM [3, 9]: 77.7% | inhibition at 0.1 µM [3, 9]: 45% | inhibition at 0.3 µM [3, 9]: 21.9% | remaining activity at 0.003 µM (dDATmfc): 86.1% | remaining activity at 0.1 µM (dDATmfc): 22.9% | Ki (hDAT [5]): 0.37 µM

CN(C)C[C@H]1CCCC[C@]1(O)c1cccc(O)c1 [desmetramadol, O-desmethyl tramadol]
IC50 (hNET [6]; read-out: IC50, inhibition of hNET): 6 µM

CNCC[C@H](Oc1cccc2ccccc12)c1cccs1 [Dulox]
remaining activity at 0.03 µM (dDATNET; read-out: Percent binding): 86.3% | remaining activity at 0.1 µM (dDATNET; read-out: Percent binding): 57.8% | remaining activity at 0.3 µM (dDATNET; read-out: Percent binding): 34.1% | remaining activity at 1 µM (dDATNET; read-out: Percent binding): 18.4%

COc1cccc(C2(O)CCCCC2CN(C)C)c1 (stereo not shown) [Tramadol, tramadol]
Ki (dDATNET; Binding Ki with dDATNET (vs. Nisoxetine)): 5.31 µM and 5.3 µM | remaining activity at 100 µM (dDATNET; DAT NET, Log Tramadol (M) -4, replicate values, read-out: Percent binding): 43.3% | remaining activity at 30 µM (dDATNET; read-out: Percent binding): 60% | remaining activity at 300 µM (dDATNET; read-out: Percent binding): 17.9% | remaining activity at 3000 µM (dDATNET; read-out: Percent binding): 4.79% | IC50 (dDATfc A117S/A428S): 130 ± 12.2 µM | inhibition at 100 µM (dDATfc A117S/A428S; 0.5 h, read-out: Percent inhibition of DA uptake, A117S_A428S, Log[compound] M = -4, single replicates): 48.1% | IC50 (dDATfc A428S): 50.5 ± 5.4 µM | inhibition at 100 µM (dDATfc A428S; 0.5 h, A428S, Log[compound] M = -4, single replicates, read-out: Percent inhibition of DA uptake): 32.2% | inhibition at 1 µM (dDATfc A428S; 0.5 h, A428S, Log[compound] M = -6, single replicates, read-out: Percent inhibition of DA uptake): 92.4% | inhibition at 300 µM (dDATfc A428S; [8]): 11.6% | IC50 (dDATfc A117S): 35.8 ± 2.2 µM | inhibition at 100 µM (dDATfc A117S; 0.5 h, A117S, Log[compound] M = -4, single replicates, read-out: Percent inhibition of DA uptake): 29.4% | inhibition at 1 µM (dDATfc A117S; 0.5 h, A117S, Log[compound] M = -6, single replicates, read-out: Percent inhibition of DA uptake): 105% | inhibition at 3 µM (dDATfc A117S; [8]): 105% | inhibition at 30 µM (dDATfc A117S; [8]): 61.3% | inhibition at 300 µM (dDATfc A117S; [8]): 13.1% | inhibition at 3000 µM (dDATfc A117S; [8]): 3.78% | IC50 [3]: 24.7 ± 2.8 µM | Ki [3]: 15.9 ± 1.8 µM | inhibition at 30 µM [3, 9]: 38.5% | greater affinity to NET over DAT (hNET [6]; NET over DAT): ~ 50 fold | remaining activity at 1000 µM (dDATmfc; DATmfc, Log Tramadol (M) -3, replicate values): 6.84% | remaining activity at 100 µM (dDATmfc; DATmfc, Log Tramadol (M) -4, replicate values): 23.9% | remaining activity at 10 µM (dDATmfc; DATmfc, Log Tramadol (M) -5, replicate values): 74.2% | remaining activity at 1 µM (dDATmfc; DATmfc, Log Tramadol (M) -6, replicate values): 91.4% | remaining activity at 3 µM (dDATmfc): 91% | remaining activity at 30 µM (dDATmfc): 44%
